# Measurements from a melting point compilation (Tetko et al.; mined from patent text by program, amines drawn as free bases though some values may be those of a salt).
row,Structure (SMILES),melting point
1,O=C1Nc2ccc(I)cc2C1=NNC(=O)c1ccc(I)cc1,326 °C
2,Cc1cc2c(cc1Oc1nnnn1-c1ccccc1)[C@@H](c1ccccc1)CN(C)CC2,140 to 142 °C
3,CN1CCC(Oc2ccc(Cl)cc2)(c2ccccc2)C(O)C1 (stereo unspecified),164 to 165 °C
4,CC(C)CCOCc1cc(-n2nc(C(N)=O)nc2-c2ccccc2F)ccc1Cl,113 to 115 °C
5,N#Cc1nn(-c2c(Cl)cc(C(F)(F)F)cc2Cl)cc1C1CC(=O)C1(Cl)Cl (stereo unspecified),118 to 120 °C
6,Cc1nc2[nH]c(=O)[nH]c2cc1-c1ccc([N+](=O)[O-])cc1,> 300 °C
7,Cc1ccc(S(=O)(=O)OCCCCO[N+](=O)[O-])cc1,38 to 40 °C
8,CCOC(=O)c1cnc(-c2ccc(Cl)cc2)nc1-c1ccc(OC)c(OC)c1,115 °C
9,O=[N+]([O-])c1cnccc1Oc1ccc2[nH]ccc2c1,182 to 184 °C
10,CC(C1CC1)N1C(=O)c2cc([N+](=O)[O-])cnc2C1=O (stereo unspecified),96 to 99 °C
11,CCCC(CCNC(=O)C(C#N)=Cc1cc(O)c(O)c(OC)c1)NC(=O)C(C#N)=Cc1cc(O)c(O)c(OC)c1 (stereo unspecified),243 °C
12,CN(C(=O)c1ccc(N)cc1)c1ccccc1N,159 to 160 °C
13,C[C@H](C(=O)O)[C@H](O)CCCCc1ccccc1,75 to 77 °C
14,COc1cc2cc3c(Cl)c(C#N)cnc3cc2cc1O,> 300 °C
15,NC(=O)c1c[nH]c2ccc([N+](=O)[O-])cc12,284 to 288 °C
16,COc1ccc(C=C2NC(C(=O)Cc3cc(OC)c(OC)c(OC)c3)=Cc3ccccc32)cc1OC,164 to 170 °C
17,O=C1Nc2ccccc2C(c2ccc(Cl)cc2)CC1Br (stereo unspecified),194 to 198 °C
18,O=C1CCc2cc(-c3cccc(Cl)c3)ccc21,113 °C
19,CC1Cc2c(cc(O)cc2C(=O)O)O1 (stereo unspecified),225 to 227 °C
20,C=CCc1c(O)ccc2c(C)cc(=O)oc12,192 to 195 °C
21,Cn1c(C(F)(F)F)cc(=O)n(-c2ccc3snc(OCC#N)c3c2)c1=O,265 to 266 °C
22,COc1cc2c(I)cn(C)c2cc1OC,80 to 90 °C
23,C#CC(CCCCC)OC(c1ccccc1)(c1ccccc1)c1ccccc1 (stereo unspecified),65 to 66.5 °C
24,O=C(Nc1ccc(C(=O)Nc2ccc(Br)cn2)cn1)c1ccc(Br)nc1,245 to 247 °C
25,CC(C)(C)OC(=O)N1CCN(S(=O)(=O)c2ccc(S(=O)(=O)c3ccc4cc(Br)ccc4c3)cc2)CC1,213 to 215 °C
26,COC(=O)CCC/C=C(/c1cc(C)c2onc(OC)c2c1)c1cc(C)c2oc(=O)n(C)c2c1,54 to 55 °C

row,Structure (SMILES),melting point
1,CC(Oc1ccc([N+](=O)[O-])cc1)c1nnc(N=C=O)s1 (stereo unspecified),215 to 221 °C
2,COc1cccc(C(=O)N2CCc3cc(O)c(OC)cc3C2)c1,141 to 142 °C
3,Cc1c2c(c(C(O)c3ccc(C(C)C)cc3)c(C)c1NC(=O)OC(C)(C)C)OC(C)C2 (stereo unspecified),141 to 142 °C
4,Cn1cc(-c2cc3cccnc3[nH]2)c2cc(OCCO)ccc21,209 to 210 °C
5,COc1ccc(C=CC(=O)c2c(OC)cc(OC)cc2OC(=O)CCCC(=O)O)cc1,131 to 132 °C
6,CNC(=O)C(Cc1ccc(OC)cc1)NC(=O)C(C)(CC(C)C)c1c(S)cccc1Cl (stereo unspecified),159 to 163 °C
7,COc1ccccc1NC(=S)C1CCc2nc[nH]c2C1 (stereo unspecified),218 to 219 °C
8,COC(=O)CCCc1cc2cc(Cl)ccc2n1S(=O)(=O)c1cccc(C(C)C)c1,94 to 97 °C
9,NC(=O)c1csc(C2OC(CO)C(O)C2O)n1 (stereo unspecified),142 to 144 °C
10,O=C(O)c1cc(F)c(-n2cccc2)cc1F,196 to 198 °C
11,OC/C=C(\c1ccccc1)c1ccc(C#Cc2ccccc2)cc1,115 to 117 °C
12,COc1cc2c(cc1Br)-c1c(-c3cccs3)c3c(n1CC2)C(=O)N(C)C(C)(C)CC3,173 to 175 °C
13,CN1C(=O)C2(CCN(Cc3ccccc3)CC2)N=C(c2ccccc2)c2cc(Cl)ccc21,169 to 170 °C
14,COC(=O)c1cccc(-c2noc(C)n2)c1,81 °C
15,COc1ccc(-c2ocnc2-c2cc(OC)c(O)c(OC)c2)cc1N,101 to 102 °C
16,Nc1c(-c2ccc(Cl)cc2)nc2c(Cl)cc(Cl)cc2c1C(=O)O,260 to 261 °C
17,CCCCc1nc(Cl)c(CC(=O)O)c(Cc2ccc(-c3ccccc3-c3nnn[nH]3)cc2)n1,180 °C
18,CCCCCc1cnc(-c2ccc(F)cc2)nc1,28.6 °C
19,CC(=O)OC1CSC(Oc2cccnc2-c2cccnc2)C(OC(C)=O)C1OC(C)=O (stereo unspecified),70 °C
20,COc1cccc(-c2nc(N)c(C(N)=O)nc2-c2ccc(=O)n(C(C)C)c2)c1,192 °C
21,Cc1ccc(N2C(=O)C(O)=C(C(=O)c3ccc(CC(C)C)cc3)C2c2ccc(OC(F)(F)F)cc2)nn1 (stereo unspecified),260 °C
22,O=c1c2c(Cc3ccccc3)n[nH]c2c2cccnc2n1-c1ccccc1,305 to 308 °C
23,O=C(NCCc1ccc(O)cc1)OCc1ccccc1,96 to 98 °C
24,Nc1ncc(Br)c(NCC2(CO)CCC2)n1,156 to 158 °C
25,CC(N1CCC(Cc2ccccc2)CC1)C(O)(NC(=O)c1ccccc1)c1ccc(N)cc1 (stereo unspecified),126 to 129 °C
26,CCCCCCc1cc2c(s1)-n1c(C)nnc1C(C)N=C2c1ccccc1C (stereo unspecified),83 to 85 °C

row,Structure (SMILES),melting point
1,CN(CC(O)c1ccc2[nH]c(=O)[nH]c2c1)C1CCC(c2ccccc2)CC1 (stereo unspecified),238 to 239 °C
2,O=C(OCC(O)CO)c1cc(F)ccc1Nc1ccnc2c(C(F)(F)F)cccc12 (stereo unspecified),197 to 198 °C
3,CC1=C(C(=O)OC(C)C)C(c2cccc([N+](=O)[O-])c2)n2c(n[nH]c2=O)N1 (stereo unspecified),225 to 227 °C
4,CCCc1c(OCCCSc2nnc(SCC(=O)O)s2)ccc(C(C)=O)c1O,129 to 130 °C
5,COc1ccc(S)nn1,198 to 200 °C
6,COc1cc(Cl)c(-n2c(=O)cc(C(F)(F)F)n(C)c2=O)c2sc(Cl)nc12,185 to 187 °C
7,NC(=S)NN=C(CCCOC(=O)Nc1cccc2ccccc12)c1ccccc1,189 to 192 °C
8,CC(C)(C)OC(=O)c1cc(N2CCOCC2)cc([N+](=O)[O-])c1,116 to 118 °C
9,Clc1ccc(N2CCN(Cc3nc4ccccc4[nH]3)CC2)cc1,212 to 213 °C
10,CCCCCCCCCCCCn1c2cc(Cl)ccc2c2ccc(Cl)cc21,70 to 71 °C
11,O=c1ccn(-c2ccc3c(c2)Cc2cc(=O)[nH]nc2-3)cc1,> 300 °C
12,CCOC(=O)c1cn(CC)c2cc(-c3cc(C)nc(C)c3)c(F)cc2c1=O,221 to 224 °C
13,CC(=O)C(=NNc1ccccc1)C(=O)NCc1ccccc1,101 to 103 °C
14,Cc1oc(-c2ccccc2)nc1CCOc1ccc(NC2SC(=O)NC2=O)cc1 (stereo unspecified),179 to 180 °C
15,Clc1ccc(/C=C/C2=CCN(Cc3ccc(Cl)cc3)CC2)cc1,127 °C
16,COC(=O)C(NCc1cn(Cc2ccccc2)c2ccccc12)c1ccccc1 (racemic),72 to 75 °C
17,CCCCOCCOc1ccc(-c2ccc3c(c2)C=C(C(=O)O)CCN3CCCOC)cc1,99 to 101 °C
18,CNC(=O)N/N=C1/C(=O)N(CCN(C(C)C)C(C)C)c2ccc(C)cc21,158 °C
19,Cc1nc(C)c(Cl)c(NCc2ccc(OCc3ccccc3)c(OCC(F)(F)F)c2)n1,135 to 138 °C
20,CCOC(=O)c1cccc2c1CCc1cc(O)ccc1S2,125 to 129 °C
21,CCn1ncc2c1ncc1c(OCCC(C)C)nc3cc(C)nn3c12,60 to 62 °C
22,COc1cc(C(=O)O)c2c(c1OC)OC(C1CC1)C=C2 (stereo unspecified),124 to 126 °C
23,O=C(O)c1cc(Cl)ccc1Nc1ccc(OCc2ccccc2)cc1,189 to 191 °C
24,CC(C)C[C@H](CN)CC(=O)O,192 to 196 °C
25,COc1c2c(c(OC)c(OC)c1OC)CCC(CCOc1ccc(Cl)cc1)CC2,98 to 102 °C
26,CC(C)(C)OC(=O)C(Br)c1ccc(Cl)c(Cl)c1 (racemic),88 °C

row,Structure (SMILES),melting point
1,Cc1nc2cnccc2n1-c1ccc(OCc2cccc(C(=O)O)c2)cc1,255 to 258 °C
2,NC(=O)Nc1c(C(=O)c2ccccc2)[nH]c2cc(Cl)ccc12,196 to 200 °C
3,COC(=O)c1cc(Cn2cncc2C)cc(C(C)(C)C#N)c1,101 to 104 °C
4,CCOc1cc(C(=CC#N)c2ccc(OC)c(F)c2)ccc1OC,122 to 124 °C
5,Nc1ncc(Br)n2nc(SCc3ccccc3)nc12,149 to 150 °C
6,CCOC(=O)c1ccc(-c2ccc(O)cc2)cc1,144 to 146 °C
7,CCN1C(=O)C(C)(C)C(=O)N(C)c2cc(CN(CCn3ccc4oc(C)cc4c3=O)c3cccc4ncccc34)ccc21,166 to 168 °C
8,CCCCCCCCCCC(C)(C)NC(=O)Nc1cc(OC)cc(C(C)(C)C)c1OCOC,83 to 85 °C
9,COc1ccccc1-c1cc(F)cc2c1NC(CN)CO2 (stereo unspecified),84 °C
10,COc1cc2c(-c3ccnc(NN)c3)c(CO)c(CO)cc2cc1OC1CCCC1,127 to 130 °C
11,CCOC(=O)C1CCN(CC2(C)Cc3c(C)c(N)c(C)c(C)c3O2)CC1 (stereo unspecified),74 to 76 °C
12,O=C(NNc1ccccc1)c1ccc(F)cc1,181 to 186 °C
13,CS(=O)(=O)c1cc(Br)ccc1C(=O)O,220 °C
14,CC(C)c1ccc2nc3ccc(C#N)cc3c(=O)n2c1,207 to 211 °C
15,Cc1cc(Cl)c(C)c(C(=O)O)c1,168 to 170 °C
16,N[C@H]1CC[C@H](Nc2cc(C(F)(F)F)nc3c(C(F)(F)F)cccc23)CC1,173 °C
17,CN1C(=O)CCC2(C)C3CCC4(C)C(OC(=O)NCc5ccccc5)CCC4C3CCC12 (stereo unspecified),216 to 217 °C
18,CC(C)(C)OC(=O)NCCNC(=O)c1ncsc1-c1ccccc1,139 to 140 °C
19,Cn1nnc2cc3c(cc2c1=O)OC1CCCN1C3=O (stereo unspecified),249 to 251 °C
20,CCCN(CCC)C(=O)/C=C/CSc1nc(N)cc(Cl)n1,139 to 142 °C
21,CC1C(c2ccc([N+](=O)[O-])cc2)CC(=O)N1C (stereo unspecified),94 to 95 °C
22,O=C(Oc1ccccc1)N1CCC(Sc2ccccc2F)CC1,58 to 60 °C
23,O=Cc1c(O)c(O)cc([N+](=O)[O-])c1CCCC(=O)O,164 to 168 °C
